Assay results from BindingDB's records for doi:10.7270/Q2959KQ0 (n/a, 1993).

Biological target: T1, 5-hydroxytryptamine receptor 3A/3B (Rattus norvegicus, UniProt P35563+Q9JJ16)
T1 sequence (P35563 whole entry): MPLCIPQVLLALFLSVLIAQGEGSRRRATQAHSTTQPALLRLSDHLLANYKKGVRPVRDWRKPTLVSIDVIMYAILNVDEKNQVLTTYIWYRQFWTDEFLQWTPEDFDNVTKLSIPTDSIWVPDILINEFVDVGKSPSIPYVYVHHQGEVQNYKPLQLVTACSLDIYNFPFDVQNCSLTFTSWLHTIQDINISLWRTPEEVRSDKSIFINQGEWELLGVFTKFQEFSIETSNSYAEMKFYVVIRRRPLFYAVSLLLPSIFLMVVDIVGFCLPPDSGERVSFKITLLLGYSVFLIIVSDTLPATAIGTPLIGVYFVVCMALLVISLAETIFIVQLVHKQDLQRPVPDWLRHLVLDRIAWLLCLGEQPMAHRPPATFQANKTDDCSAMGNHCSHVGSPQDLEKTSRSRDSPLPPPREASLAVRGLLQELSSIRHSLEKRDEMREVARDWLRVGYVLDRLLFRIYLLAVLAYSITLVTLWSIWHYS
T1 sequence (Q9JJ16 whole entry): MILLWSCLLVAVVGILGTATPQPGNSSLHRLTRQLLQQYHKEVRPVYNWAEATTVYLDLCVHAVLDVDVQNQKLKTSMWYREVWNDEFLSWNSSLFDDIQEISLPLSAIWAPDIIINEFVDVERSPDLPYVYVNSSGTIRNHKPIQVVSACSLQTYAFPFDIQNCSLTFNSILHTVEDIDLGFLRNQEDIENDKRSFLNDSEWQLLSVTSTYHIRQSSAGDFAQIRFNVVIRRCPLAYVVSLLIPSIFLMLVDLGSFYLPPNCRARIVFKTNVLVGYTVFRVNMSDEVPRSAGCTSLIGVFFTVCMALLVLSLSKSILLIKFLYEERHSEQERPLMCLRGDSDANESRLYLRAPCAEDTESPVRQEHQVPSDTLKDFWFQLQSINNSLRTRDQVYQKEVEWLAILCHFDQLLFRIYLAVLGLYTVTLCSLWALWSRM
Assay: Binding affinity to 5-hydroxytryptamine 3 receptor was determined in rat cerebro cortical membranes using [3H]quipazine.

Q: `COc1cc(N)c(Cl)cc1C(=O)N[C@H]1CN2CCC1CC2` [4-Amino-N-(R)-1-aza-bicyclo[2.2.2]oct-3-yl-5-chloro-2-methoxy-benzamide] was tested. Which Ki did it give?
A: 3.2 nM
